Laboratory results reported in US8399610B2, “HPV vaccine comprising peptides from host cell proteins” (University College Cardiff Consultants Limited, priority 2004, dated 2013).

Columns and labels:
T cell line KSI 10B7 = assay: Mapping of epitope(s) recognised by T cell line KSI 10B7, IFN-γ ELISPOT with T2 cells as APC; type: cell-based, human; details: individual peptides, triplicate
Method: T cells were tested by IFN-γ ELISPOT assays against either the whole BAX peptide mixture (1-23), or different sub-pools (1-9, 10-15, 16-23) or individual peptides (10, 11, 12, 13, 14 and 15). T2 cells (which only express HLA-A*0201) were used as APC. All combinations were tested in triplicate, with 600 spots being the maximum number that could be counted in these assays; and
Further immunomagnetic enrichment, flow sorting and expansion, led to the derivation of a T cell line (KSI 10B7), with 100% specificity for BAX peptides that bound to HLA-A*0201 (data not shown). This T cell line was tested by IFN-γ ELISPOT assays against either the whole BAX peptide mixture (1-23), or different sub-pools (1-9, 10-15, 16-23) or individual peptides (10, 11, 12, 13, 14 and 15). All combinations were tested in triplicate, with 600 spots being the maximum number that could be counted in these assays. KSI 10B7 T cells recognised two similar BAX peptides (10 and 13, FIG. 9). Both these peptides were predicted to bind to HLA-A*0201 (Table 4) and had similar amino acid sequences ([…] and […]). It is believed that the KSI 10B7 T cells recognised the […] sequence that is common to both peptides.

[1] = system: CD8+ pentamer+ T lymphocytes; assay: Peptide:HLA-A2 pentamer staining of CD8+ T cells from healthy HLA-A2+ donors after 14 days culture with peptide; type: cell-based, human
Method: On day 0 and day 14 days, the numbers of peptide specific CD8^+ T cells were measured using appropriate fluoresceinated peptide:HLA-A2 pentamers. These were analysed on a flow cytometer and expressed as % of gated cells, excluding dead and […] cells.

[2] = system: CD8+ T cells recognising Rb7 peptide; assay: Detection of peptide specific CD8+ T cells in patient blood with fluoresceinated multimeric HLA-A2/peptide complexes; type: cell-based, human; details: 4 patients tested (3 with cervical cancer, 1 CIN3); low frequency
Method: T cells reactive against peptides of the invention should be preferentially found in HLA-A2 patients with cervical cancer. Blood samples from 4 patients (3 with cervical cancer, 1 with premalignant disease, CIN3) were tested for the presence of CD8^+ T cells recognising Rb7 peptide. Fluoresceinated multimeric HLA-A2/peptide complexes were used to measure numbers of peptide specific T cells by flow cytometry (10). […] These frequencies were similar to those previously obtained for HPV16 E7 peptide specific T cells (10).

[3] = system: IFN-γ producing T cells specific for the immunising peptide; assay: In vivo immunogenicity in HLA-A*0201 transgenic mice, IFN-γ ELISPOT on splenocytes; design: species or system HLA-A2/Kb transgenic mice; details: responding/immunised mice; 100 μg peptide in incomplete freunds adjuvant, splenocytes after ten to eleven days

Substance	Recognition by KSI 10B7 T cells (T cell line KSI 10B7)	Frequency of peptide specific T lymphocytes, in words ([1]; 8 healthy donors (all HLA-A2+))	Healthy donors in whom T lymphocytes recognising the peptide could be detected ([1]; 8 healthy donors (all HLA-A2+) tested) [healthy donors]	Frequency of CD8+ pentamer+ cells ([1]; healthy donor 1, 14 days culture with peptide)	Frequency of CD8+ pentamer+ cells ([1]; healthy donor 2, 14 days culture with peptide)	Frequency of CD8+ pentamer+ cells ([1]; healthy donor 3, 14 days culture with peptide)	Frequency of CD8+ pentamer+ cells ([1]; healthy donor 4, 14 days culture with peptide)	Frequency of CD8+ pentamer+ cells ([1]; healthy donor 5, 14 days culture with peptide)	Frequency of CD8+ pentamer+ cells ([1]; healthy donor 6, 14 days culture with peptide)	Frequency of CD8+ pentamer+ cells ([1]; healthy donor 7, 14 days culture with peptide)	Frequency of CD8+ pentamer+ cells ([1]; healthy donor 8, 14 days culture with peptide)	Patients in whose blood T cells specific for Rb7 peptide could be detected [2] [patients]	Mice with significant T cell responses (IFN-γ ELISPOT) [3]
IMGWTLDFL [BAX peptide 13]	recognised	–	–	–	–	–	–	–	–	–	–	–	–
Rb7: peptide from Rb485-493 (Rb7) protein, derived from human Rb protein (SLLACALEV)	–	variable but generally low frequencies	8	1/2500	1/1000	1/1000	1/909	1/120	1/3333	1/2000	1/2500	2	7/10
TIMGWTLDFL [BAX peptide 10]	recognised	–	–	–	–	–	–	–	–	–	–	–	–
